Laboratory results reported in patent US20220089600A1, “TGFß INHIBITOR AND PRODRUGS” (FUNDACIÓ INSTITUT DE RECERCA BIOMÈDICA (IRB BARCELONA), priority 2018, published 2022).
Blank lines part the entries; values can stand above or below the molecule they belong to.

Assays:
[1] = target: T1, Cre-ER^T2 fusion protein in MEFs (Homo sapiens, UniProt P03372, G400V/L544A/M543A/V595A); assay: Co-culture MEF recombination assay (mTmG reporter, FACS); assay type: cell-based, mouse
T1 construct: Cre recombinase (fusion partner); host or cells: mouse embryonic fibroblasts from UbC-Cre-ER^T2; mTmG transgenic mice; the other entry of the earlier key: cre (P06956, Recombinase cre)
T1 sequence (P03372 with tags, fused parts or gaps G400V/M543A/L544A/V595A): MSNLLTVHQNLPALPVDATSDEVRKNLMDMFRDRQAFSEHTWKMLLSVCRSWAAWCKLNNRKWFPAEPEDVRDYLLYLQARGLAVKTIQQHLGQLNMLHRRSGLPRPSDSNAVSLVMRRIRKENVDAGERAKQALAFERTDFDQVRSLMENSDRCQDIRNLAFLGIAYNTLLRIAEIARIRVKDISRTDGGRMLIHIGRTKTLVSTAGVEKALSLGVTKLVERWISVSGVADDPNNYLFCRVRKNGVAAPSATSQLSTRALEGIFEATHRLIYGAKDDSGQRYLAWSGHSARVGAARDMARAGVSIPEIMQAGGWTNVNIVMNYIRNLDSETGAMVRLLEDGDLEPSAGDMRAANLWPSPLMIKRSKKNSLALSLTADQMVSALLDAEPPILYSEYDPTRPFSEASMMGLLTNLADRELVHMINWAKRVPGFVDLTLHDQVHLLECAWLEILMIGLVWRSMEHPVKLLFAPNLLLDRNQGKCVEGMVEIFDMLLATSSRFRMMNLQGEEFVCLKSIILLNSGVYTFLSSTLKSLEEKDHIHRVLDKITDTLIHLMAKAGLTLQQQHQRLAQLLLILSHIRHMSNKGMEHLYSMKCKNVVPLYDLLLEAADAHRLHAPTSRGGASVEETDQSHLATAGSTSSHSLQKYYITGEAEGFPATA
Excerpt: The mouse model carries recombination reporter mTmG (JAX stock: 007676). This system expresses the membrane bound tdTomato (tandem dimer tomato; mT stands for membrane Tomato), which is a red fluorescent protein. Upon recombination with an activated Cre enzyme, the coding sequence for mT as well as a stop codon, being between loxP sites, is excised. […] Effectively this means that in the presence of a Cre enzyme, or in the presence of a 4-OHT activated Cre-ER^T2 fusion protein, the cells stop their production of tdTomato and proceed to express the EGFP; this genetic switch can be efficiently quantified by flow cytometry analysis. The mouse strain expressing mTmG was then crossed to a mouse carrying a Cre-ER^T2 fusion protein in all cells (UbC-Cre-ER^T2; Jax Stock: 008085). From the dual transgenic mouse, as well as from the reporter strain without Cre-ER^T2, MEFs were harvested from 14-day-old embryos. Briefly, pregnant females were sacrificed 14 days after plug formation, uteri were removed, and embryos were dissected: heads and fetal livers were discarded. The rest was minced and digested with trypsin and grown in 10-cm plates with aforementioned supplemented DMEM.
MEF recombination: MTO129, transduced with pLenti PGK-LigF (puro) or with an equivalent empty vector was trypsinized and single cells added onto UbC-Cre-ER^T2; mTmG (or control mTmG-only) MEFs grown in 12-well plates. The next day, either Z-4-OHT or the prodrug of formula VII was added in concentrations ranging from 1000 to 1 nM. Two days later, cells were trypsinized and analyzed by flow cytometry for TdTomato/EGFP fluorescence (Gallios, Beckman Coulter). Fluorescence was analyzed on viable cells in 2 dimensions and scored as percentages in the 4 quadrants. EGFP positive quadrants (Q2 and Q4, with or without TdTomato) were considered recombined and the fraction of the total was calculated. Data are the average (+SD) from two independent experiments.

[2] = test system: NTCF4-ER^T2 fusion protein in LS174T cells; assay: Co-culture LS174T-NTCF4-ER^T2 gene expression assay; assay type: cell-based; conditions: 16h
Protocol: These LS-NE cells were cultured in DMEM supplemented with L-glutamine and 10% fetal bovine serum (Life Technologies) at 37° C. and 5% CO2.
HEK293T cells transduced with pLenti PGK-LigF (puro) or with an equivalent empty vector were co-plated with LS174T-NTCF4-ER^T2 (LS-NE) cells, in a ratio of 1/10 in 6-well plates. Co-cultures were treated with DMSO, 1 μM Z-4-OHT or the prodrug of formula VII at 1 or 10 μM. After 16h, cells were lysed in trizol for RNA extraction (PureLink RNA Mini Kit, Life Technologies) and cDNA preparation (High Capacity cDNA RT kit, Applied Biosysytems). […] Data in FIG. 11 were normalized to the housekeeping gene, and to DMSO controls. Data are the average of technical replicates (+SD) from a single experiment.

LigF = target: T2, LigF (Sphingobium sp., UniProt P30347); assay: In vitro LigF cleavage of prodrug, HPLC-MS/MS; assay type: biochemical, Sphingobium sp. strain SYK-6; conditions: 37° C.
T2 construct: made in house; host or cells: E. coli BL21 (DE3) Rosetta lysS
T2 sequence (P30347 1-257): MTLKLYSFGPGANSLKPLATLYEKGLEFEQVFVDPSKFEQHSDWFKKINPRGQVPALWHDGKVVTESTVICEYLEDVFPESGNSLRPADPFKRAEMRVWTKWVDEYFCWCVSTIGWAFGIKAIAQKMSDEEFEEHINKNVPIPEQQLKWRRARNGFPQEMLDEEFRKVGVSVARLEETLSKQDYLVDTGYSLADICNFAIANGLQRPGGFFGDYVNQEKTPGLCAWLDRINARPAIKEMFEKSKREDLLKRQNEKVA
Protocol: Similar to the in vitro assay in 5.2., the compound of formula VII was diluted from a 30 mM stock solution in DMSO to 50 μM in 20 mM Tris-HCl (pH 7.5), 1 mM glutathione and 15 μg/ml LigF was added. However, the reaction mixture was incubated at 37° C. and the read-out was different: using HPLC-MS/MS. Reaction samples, as well as a control sample without enzyme and Z-4-OHT (4-hydroxytamoxifen) as a standard were diluted 2:3 in MeOH and 2 μl was injected onto a BioBasic C18 column (5 μm, 2.1×150 mm, Thermo; using a Thermo EC Finnigan Mod Micro AS autosamples and Thermo EC Quarternary pump, Finnigan Mod. Surveyor MS chromatograph) with a water-MeOH gradient (60-90% MeOH in 30 min; 90-100% in 5 min; 100 μl/min flow rate). LC-MS coupling was performed with the Advion Triversa Nanomate (Advion BioSciences, Ithaca, N.Y., USA) as the nanoESI source performing nanoelectrospray through chip technology. The Nanomate was attached to an LTQ-FT Ultra mass spectrometer and operated at a spray voltage of 1.7 kV and a delivery pressure of 0.5 psi in positive mode. In a LTQ-FT Ultra (Thermo Scientif) mass spectrometer, analyses were performed using 40V capillary voltage and 120V tube lens voltage. MS/MS was operated in a data-dependent acquisition (DDA) mode and in selected reaction monitoring (SRM) mode. Survey MS scans were acquired in the FT with the resolution (defined at 400 m/z) set to 100,000. Up to six of the most intense ions per scan were fragmented and detected in the linear ion trap. The ion count target value was 1,000,000 for the survey scan and 50,000 for the MS/MS scan. Target ions already selected for MS/MS were dynamically excluded for 30 s. For SRM, maximum injective was set to 400 ms and 2 microscans average.
Data are represented as XIC (extracted ion chromatogram) peak areas of parallel reaction monitoring (PRM) transitions, using QuanBrowser (Xcalibur software 2.0SR2).

Cre-ER^T2 fusion protein = target: T3, Cre-ER^T2 fusion protein (Homo sapiens, UniProt P03372, G400V/L544A/M543A/V595A); assay: In vivo gene recombination in UbCre-ER^T2; mTmG mice (EGFP immunohistochemistry); design: species or system mouse
T3 construct: Cre recombinase (fusion partner); tissue Jax Stock: 008085; host or cells: liver of transgenic UbCre-ER^T2; mTmG mice (transgene product); the other entry of the earlier key: cre (P06956, Recombinase cre)
Protocol: Using the UbCre-ER^T2; mTmG mice described in example 6, we treated these animals with the prodrug of formula VII at 1 or 5 μmol (approximately 0.6 or 3 mg, respectively) or with a vehicle control (oil). Five days after treatment, mice were sacrificed, and the liver was fixed overnight in 10% phosphate-buffered formalin (sigma) and embedded in paraffin, similar to the description of example 3 (FIG. 1).

human ALK5 = target: T4, human ALK5 (Homo sapiens, UniProt P36897); assay: KinaseProfiler enzymatic activity inhibition; assay type: biochemical; conditions: KinaseProfiler, 9-point curve, top 10 μM; read-out: Enzyme activity inhibition IC50 (nM) ALK5 (TGFBR1)
T4 construct: purchased Eurofins (Kinase Profiler service)
T4 sequence (P36897 34-503): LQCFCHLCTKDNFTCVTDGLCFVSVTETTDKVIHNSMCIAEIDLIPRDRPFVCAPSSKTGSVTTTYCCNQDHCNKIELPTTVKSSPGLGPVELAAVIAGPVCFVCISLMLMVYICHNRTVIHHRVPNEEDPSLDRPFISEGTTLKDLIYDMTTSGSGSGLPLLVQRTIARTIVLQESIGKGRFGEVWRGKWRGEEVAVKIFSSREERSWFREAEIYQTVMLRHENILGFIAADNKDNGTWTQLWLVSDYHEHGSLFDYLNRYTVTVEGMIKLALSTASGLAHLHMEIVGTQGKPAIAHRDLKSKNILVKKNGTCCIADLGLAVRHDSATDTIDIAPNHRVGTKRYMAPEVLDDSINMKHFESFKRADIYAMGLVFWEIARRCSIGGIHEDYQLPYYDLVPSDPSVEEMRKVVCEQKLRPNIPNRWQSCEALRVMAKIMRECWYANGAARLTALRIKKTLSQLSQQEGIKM
Protocol: Briefly, human ALK5 was incubated with 8 mM MOPS pH 7.0, 0.2 mM EDTA, 1 mM MnCl2, 2 mg/mL casein, 10 mM MgAcetate and [γ-33P-ATP] (specific activity approx. 500 cpm/pmol, concentration as required). The reaction was initiated by the addition of the MgATP mix. After incubation for 40 minutes at room temperature, the reaction was stopped by the addition of a 3% phosphoric acid solution. 10 μL of the reaction was then spotted onto a P30 filtermat and washed three times for 5 minutes in 75 mM phosphoric acid and once in methanol prior to drying and scintillation counting.
Compounds were tested using a 9-point curve with half-Log serial dilutions. The top concentration tested was 10 μM. Test compounds were prepared in 100% DMSO.

MTO129 liver metastases = assay: Mouse liver metastasis initiation/formation assay with MTOs; assay type: in vivo; conditions: FIG. 13, 1× dose
Excerpt: Mouse tumor organoids (MTOs) are derived from compound transgenic mice (conditional mutations in Apc, Kras, Trp53 and Tgfbr2, as well as bearing Lgr5-EGFP/CreER^T2) of the C57BL6/J strain and cultured as described in Tauriello et al. 2018 Nature 554(7693): 538-543. doi: 10.1038/nature25492. Organoids are tumor epithelial cells grown in a 3D matrix where they adopt an organotypic architecture, typically as spheroids with a lumen. In this way, cells retain a relatively normal polarity (which means that the outside surface, inside/luminal surface and cell-cell contacts are individually specialized), which is more physiological than in conventional 2D cell culture.
In all experiments described in present invention MTO129 were used (Tauriello et al. Nature. 2018).
In patients, treatment doses were reduced to 80 to 150 mg b.i.d in a regime of 14 days on-14 days off.
MTOs expressing a luciferase reporter were measured by bioluminescence imaging, using retroorbital injection of 50 μl 15 mg/ml D-luciferin potassium salt (Resem BV). Photons per second from the region spanning thorax/abdomen were quantified and normalized to the measure at the day of injection.
Control mice were treated with 150 μl of vehicle.
In the experiment shown in FIG. 13, potency of the indicated compounds to inhibit metastasis formation was assessed. Mice were treatments with indicated compounds started two days after MTO129 transplantation and continued during two weeks. Mice were sacrificed at 4 weeks post transplantation and liver metastases (LiMs) were counted by eye on fixed livers.

[3] = UbC-Cre-ER^T2, mTmG MEFs with LigF-expressing MTO129, 1000 to 1 nM, two days

Molecule: 4-hydroxytamoxifen [4-OHT, reference compound]
gene recombination in MEFs (fraction EGFP positive) [1, 3]: dose-dependent gene recombination | transcriptional switch (KRT20 up, ASCL2 down) ([2]; HEK293T negative for LigF, 1 μM): able to induce the transcriptional switch

Molecule: CCC(=C(c1ccc(OCCN(C)C)cc1)c1ccc(OCC(=O)c2ccc(O)c(OC)c2)cc1)c1ccccc1 (racemic) [prodrug of formula VII, 2-(4-(1-(4-(2-(dimethylamino)ethoxy)phenyl)-2-phenylbut-1-en-1-yl)phenoxy)-1-(4-hydroxy-3-methoxyphenyl)ethan-1-one]
gene recombination in MEFs (fraction EGFP positive) [1, 3]: very similar to 4-OHT | gene recombination in MEFs (fraction EGFP positive) ([1]; without LigF etherase (printed: MEFs lacking UbC-ER^T2)): only some recombination at the highest dose | cleavage plateau (LigF; 50 μM, 15 μg/ml LigF): 50% | time to half way to the plateau (LigF; 50 μM, 15 μg/ml LigF): 3 h | time to reach cleavage plateau (LigF; 50 μM, 15 μg/ml LigF): approximately 30 hours | stability in control without LigF (LigF; all other components present): remained intact | transcriptional switch (KRT20 up, ASCL2 down) ([2]; HEK293T-LigF, 10 μM): achieved the same response | gene recombination and EGFP expression in liver (Cre-ER^T2 fusion protein; 1 or 5 μmol, five days after treatment): dose-dependent activation of gene recombination and EGFP expression | gene recombination in peripheral tissues compared to the liver (Cre-ER^T2 fusion protein; Example 7 mouse treatment): lower

IC50 (human ALK5): 320 nM
Molecule: Oc1ccc2c(-c3c(-c4ccccn4)nn4c3CCC4)ccnc2c1 [Reference compound 337, 4-(2-pydridin-2-yl-5,6-dihydro-4H-pyrrolo[1,2-b]pyrazol-3-yl)-quinolin-7-ol, reference compound]

IC50 (human ALK5): 371 nM
Molecule: Cc1cccc(-c2nn3c(c2-c2ccnc4cc(O)ccc24)CCC3)n1 [Reference compound 338, 4-[2-(methyl-pyridin-2-yl) 5,6-dihydro-4H-pyrrolo[1,2-b]pyrazol-3-yl]-quinolin-7-ol, reference compound]

IC50 (human ALK5): 836 nM
Molecule: COc1cc(C(=O)COc2ccc3nccc(-c4c(-c5cccc(C)n5)nn5c4CCC5)c3c2)ccc1O [prodrug of formula III, 1-(4-hydroxy-3-methoxyphenyl)-2-((4-(2-(6-methylpyridin-2-yl)-5,6-dihydro-4H-pyrrolo[1,2-b]pyrazol-3-yl)quinolin-6-yl)oxy)ethan-1-one]

Molecule: Cc1cccc(-c2nn3c(c2-c2ccnc4ccc(OC(=O)N5CCC(N6CCCCC6)CC5)cc24)CCC3)n1 [prodrug of formula IV, 4-(2-(6-methylpyridin-2-yl)-5,6-dihydro-4H-pyrrolo[1,2-b]pyrazol-3-yl)quinolin-6-yl [1,4′-bipiperidine]-1′-carboxylate]
activity in preventing liver metastasis formation, in words (MTO129 liver metastases): more robustly than galunisertib | IC50 (human ALK5): 2280 nM
